# Source: publication PMC6255045, “Tyrosinase Inhibitor Activity of Coumarin-Resveratrol Hybrids” (Molecules, 2009)
# Like-named read-outs stand apart in the source and are kept apart here.
# Assays:
# mushroom tyrosinase [1] = assay: Tyrosinase inhibition assay (diphenolase activity, L-DOPA as substrate); type: biochemical; conditions: for tyrosinase inhibitory effect (in words): diphenolase activity; for tyrosinase inhibitory effect (in words) / % inhibition (at 0.8 mM) / IC50: substrate L-DOPA; for % inhibition (at 0.8 mM) / IC50: mushroom tyrosinase; for % inhibition (at 0.8 mM): compound at 0.8 mM
# Protocol: Tyrosinase activity assays were performed with L-DOPA as substrate, as previously described with slight modifications. The pre-incubation with enzyme consisted of a 1/15 M phosphoric acid buffer solution (pH 6.8, 1.8 mL), an aqueous solution of mushroom tyrosinase (1000 U/mL, Sigma Chemical Co., 0.1 mL) and DMSO (0.1 mL) with or without an added sample. The mixture was pre-incubated at 25°C for 10 minutes. Then, a 1.5 mM L-DOPA solution (1 mL) was added and the reaction was monitored at 475 nm for 5 min. The detected absorbance increases accompanying the oxidation of the substrate (L-DOPA). The final concentration of dopaquinone was measured using the molar absorption coefficient of 3,700 M^-1 cm^-1 [31]. One unit of enzymatic activity was defined as the amount of enzyme transforming 1 μmole of L-DOPA per minute. The percentage of inhibition of tyrosinase activity was calculated as inhibition (%) = (A-B)/A×100, where A represents the difference in the absorbance of control sample between an incubation time of 0.5 and 1.0 min, and B represents the difference in absorbance of the test sample between an incubation time of 0.5 and 1.0 min. The activity of mushroom tyrosinase was determinate by spectrophotometric techniques (Varian Cary 50). DMSO inhibitory activity, in the same experimental conditions, was evaluated as 10.7%.
# mushroom tyrosinase [2] = conditions: cited from earlier work
smiles,measurement,setting,value
O=c1oc2cc(O)ccc2cc1-c1ccccc1 [Compound 1],tyrosinase inhibitory effect (in words),mushroom tyrosinase [1],did not inhibit any tyrosinase activity
same,% inhibition (at 0.8 mM),mushroom tyrosinase [1],0%
O=c1oc2ccccc2cc1-c1ccc(O)cc1 [Compound 2],tyrosinase inhibitory effect (in words),mushroom tyrosinase [1],no demonstrable inhibitory effects
same,% inhibition (at 0.8 mM),mushroom tyrosinase [1],0%
O=c1oc2cc(O)ccc2cc1-c1ccc(O)cc1 [Compound 3],tyrosinase inhibitory effect (in words),mushroom tyrosinase [1],no demonstrable inhibitory effects
same,% inhibition (at 0.8 mM),mushroom tyrosinase [1],9.6%
"O=c1oc2ccc(O)cc2cc1-c1ccc(O)cc1 [Compound 4, 6-hydroxy-3-(4’-hydroxyphenyl)coumarin]",IC50,mushroom tyrosinase [1],1560 µM
same,% inhibition (at 0.8 mM),mushroom tyrosinase [1],26.7%
O=c1oc2ccc(O)cc2cc1-c1cc(O)cc(O)c1 [Compound 5],% inhibition (at 0.8 mM),mushroom tyrosinase [1],0%
O=c1oc2cc(O)ccc2cc1-c1cc(O)cc(O)c1 [Compound 6],IC50,mushroom tyrosinase [1],3680 µM
same,% inhibition (at 0.8 mM),mushroom tyrosinase [1],19.3%
O=c1oc2c(O)cc(O)cc2cc1-c1cc(O)cc(O)c1 [Compound 7],% inhibition (at 0.8 mM),mushroom tyrosinase [1],0%
"O=c1oc2c(O)cc(O)cc2cc1-c1cc(O)c(O)c(O)c1 [Compound 8, 3-(3’,4’,5’-trihydroxyphenyl)-6,8-dihydroxycoumarin]",IC50,mushroom tyrosinase [1],270 µM
same,% inhibition (at 0.8 mM),mushroom tyrosinase [1],68.3%
same,type of tyrosinase inhibition (Dixon plot),"mushroom tyrosinase [1]; with respect to L-DOPA as substrate at 0.5, 0.25 and 0.1 mM",non-competitive
O=c1ccc2ccc(O)cc2o1 [Umbelliferone],IC50,"mushroom tyrosinase [2]; mushroom tyrosinase, reference compound, ref [20]",420 µM
"O=c1cc(-c2cc(O)c(O)c(O)c2)oc2cc(O)cc(O)c12 [pentahydroxyflavone, 3’,4’,5,5’,7-pentahydroxyflavone]",type of tyrosinase inhibition,"mushroom tyrosinase [2]; previously reported, ref [29]",competitive inhibitor
